Measurements as given in patent US5552267A, “Solution for prolonged organ preservation” (priority 1994, dated 1996).

Tested on: neutrophil infiltration of cardiac graft
Test: graft myeloperoxidase activity/histology, nitric oxide series
Assay type: in vivo, rat
Details: 12 h; NTG 0.1 mg/ml in LR
Description: Ten minutes following restoration of blood flow, transplanted hearts were excised and the aortic root was flushed for 5 minutes (rate of 2 ml/minute controlled by roller pump) with normal saline (Baxter, Edison, N.J.), the atria and great vessels were removed, and intracavitary blood was evacuated. Remaining ventricular pieces were weighed, homogenized, and myeloperoxidase activity measured as described^10. For histologic study, cardiac graft samples were fixed in an ascending series of aldehydes, embedded, sectioned, and stained with hematoxylin and eosin.

Compound: O=[N+]([O-])OCC(CO[N+](=O)[O-])O[N+](=O)[O-] [NTG, nitroglycerin]
- neutrophil infiltration: marked decrease in neutrophil infiltration
